Experiments:
[1] = tested on: rabbit corpus cavernosum tissue; assay: Relaxation of rabbit corpus cavernosum strips precontracted with phenylephrine; details: Oryctolagus cuniculus; inhibition of phenylephrine (3 μM)-induced force as compared to vehicle control; read-out: % Inhibition of force (RCC strips)
Protocol: The ability of the compounds of the invention to relax rabbit corpus cavernosum tissue as a model for the treatment of erectile dysfunction is described as follows. New Zealand white rabbits (3.4–3.7 kg) were euthanized by sodium pentobarbital (100 mg/kg) overdose. The penis from each animal was rapidly removed and immersed in a cold oxygenated modified Krebs Henseleit bicarbonate buffer. The penis' outer tunica was removed and the corpus cavernosum smooth muscle obtained and cut into strips approximately 3–5 mm long. The strips were suspended in tissue baths containing physiological salt solution (see above), and allowed to equilibrate for at least one hour under resting tension of 1.0 gram. Isometric force was measured as described above. Tissue strips were stimulated with the α-agonist phenylephrine (3 μM) and allowed to reach a steady level of force prior to the addition of test compounds. The results are expressed as the percentage inhibition of phenylephrine-induced force as compared to vehicle control.

[2] = tested on: cloned mammalian (mSlo or hSlo) BK channel; assay: Assay for BK channel openers: two-electrode voltage clamp of BK-mediated outward current in Xenopus oocytes; type: cell-based; details: percent increase over BK current in controls, voltage step to +140 mV, IBTX-sensitive current
Protocol: The ability of the compounds of the invention to open BK channels and increase whole-cell outward (K^+) BK-mediated currents was assessed under voltage-clamp conditions by determining their ability to increase cloned mammalian (mSlo or hSlo) BK-mediated outward current heterologously expressed in Xenopus oocytes [Butler, A., et al., Science 1993, 261, 221–224; Dworetzky, S. I., et al., Mol. Brain Res. 1994, 27, 189–193; Gribkoff, V. K., et al., Mol. Pharmacol. 1996, 50, 206–217]. The two BK constructs employed represent nearly structurally identical homologous proteins, and have proven to be pharmacologically indistinguishable in our tests. To isolate BK current from native (background, non-BK) current, the specific and potent BK channel-blocking toxin iberiotoxin (IBTX) [Galvez, A., et al., J. Biol. Chem. 1990, 265, 11083–11090] was employed at a supramaximal concentration, e.g., 50–100 nanomolar (“nM”). The relative contribution of BK channel-mediated current to total outward current was determined by subtraction of the current remaining in the presence of IBTX (non-BK current) from the current profiles obtained in all other experimental conditions (control, drug, and wash) [Gribkoff, V. K. et al., Mol. Pharmacol. 1996, 50, 206–217]. […] All compounds were tested in 5–10 oocytes and are reported at the indicated concentration of 20 micromolar (“μM”) (or as otherwise indicated); the effect of the selected compounds of the invention on BK current was expressed as the percent of control IBTX-sensitive current at a single transmembrane voltage (+140 mV) and is listed in Table 1. Recordings were accomplished using standard two-electrode voltage clamp techniques [Stuhmer, W., et al., Methods in Enzymology, 1992, 207, 319–339]; voltage-clamp protocols consisted of 500–750 milliseconds (“ms”) duration step depolarizations, from a holding potential of −60 mV, to a final voltage up to +140 mV in 20 mV steps. The experimental media (modified Barth's solution) consisted of millimolar (“mM”): NaCl (88), NaHCO3 (2.4), KCl (1.0), HEPES (10), MgSO4 (0.82), Ca(NO3)2 (0.33), CaCl2 (0.41); pH 7.5.

[3] = tested on: rat small intestine tissue; assay: Relaxation of rat small intestine (ileum) segments; design: concentration or dose not given beside the values; details: integral of nifedipine-sensitive force, 30 min post-compound addition
Excerpt: The ability of the compounds of the invention to relax rat small intestine tissue as a model for the treatment of irritable bowel syndrome is described as follows. Male rats (Harlan, Sprague Dawley, 250–350 g) were sacrificed by decapitation. A portion of small intestine (ileum) was removed and the attached connective tissues and intestinal contents removed. The ileum was cut into segments of ≦1 cm in length. The segments were mounted longitudinally between fixed hooks in organ baths containing warm (37° C.) physiological salt solution (composition in mM: NaCl 118.4, KCl 4.7, KH2PO4 1.2, MgSO4 1.2, CaCl2 1.8, Glucose 10.1, NaHCO3 25; gassed with 95% O2/5% CO2, pH 7.4). A stable tension of ˜1.5 g was maintained in the tissue segments during the equilibration period of 45 minutes. Changes in muscle tension were measured with isometric force transducers (Grass, FT-03C) and recorded using AcqKnowledge data acquisition system (AcqKnowledge for MP100WS, Biopac Systems Inc., Goleta, Calif.). Compound or vehicle was added in the baths for 30 minutes. “Zero” active force was established at the end of the experiment using nifedipine (20 μM). The effects of compounds or vehicle on force was determined by measuring the integral of nifedipine-sensitive force (including resting tone and spontaneous contractions) pre- and 30 min post-compound (or vehicle) addition. Results are expressed as the percentage inhibition of force. DMSO vehicle inhibited force (integral) by −0.6±3.0% (n=25).

Row | SMILES | inhibition [1] [%] | % MaxiK opening ([2]; at 20 μM) [%] | % Inhibition of force (RSI strips) [3] [%] | % MaxiK opening ([2]; at 1 μM) | % MaxiK opening ([2]; at 10 μM)
1 | CN(C)CCN(C)CCC(=O)Nc1ccc(Sc2c(-c3cc(Cl)ccc3O)c3cc(C(F)(F)F)ccc3[nH]c2=O)cc1 [Example 12, N-[4-[[4-(5-chloro-2-hydroxyphenyl)-1,2-dihydro-2-oxo-6-(trifluoromethyl)-3-quinolinyl]thio]phenyl]-3-[[2-(dimethylamino)ethyl]methylamino]propanamide] | 29 | 489 | – | – | –
2 | O=C(CCN1CCC(N2CCCCC2)CC1)Nc1ccc(Sc2c(-c3cc(Cl)ccc3O)c3cc(C(F)(F)F)ccc3[nH]c2=O)cc1 [Example 13, N-[4-[[4-(5-chloro-2-hydroxyphenyl)-1,2-dihydro-2-oxo-6-(trifluoromethyl)-3-quinolinyl]thio]phenyl]-[1,4′-bipiperidine]-1′-propanamide] | 23 | 255 | 78 | – | –
3 | CN(C)CCN(C)CC(=O)Nc1ccc(Sc2c(-c3cc(Cl)ccc3O)c3cc(C(F)(F)F)ccc3[nH]c2=O)cc1 [Example 7, N-[4-[[4-(5-chloro-2-hydroxyphenyl)-1,2-dihydro-2-oxo-6-(trifluoromethyl)-3-quinolinyl]thio]phenyl]-2-[[2-(dimethylamino)ethyl]methylamino]acetamide] | 16 | 231 | 41 | – | –
4 | O=C(CN1CCOCC1)Nc1ccc(Sc2c(-c3cc(Cl)ccc3O)c3cc(C(F)(F)F)ccc3[nH]c2=O)cc1 [Example 1, N-{4-[4-(5-Chloro-2-hydroxy-phenyl)-2-oxo-6-trifluoromethyl-1,2-dihydro-quinolin-3-ylsulfanyl]-phenyl}-2-morpholin-4-yl-acetamide] | 34 | – | 51 | 296^⋄ % | –
5 | O=C(CCCN1CCC(N2CCCCC2)CC1)Nc1ccc(Sc2c(-c3cc(Cl)ccc3O)c3cc(C(F)(F)F)ccc3[nH]c2=O)cc1 [Example 15, N-[4-[[4-(5-chloro-2-hydroxyphenyl)-1,2-dihydro-2-oxo-6-(trifluoromethyl)-3-quinolinyl]thio]phenyl]-[1,4′-bipiperidine]-1′-butanamide] | – | 268 | – | – | –
6 | O=C(CCN1CCN(c2ccccn2)CC1)Nc1ccc(Sc2c(-c3cc(Cl)ccc3O)c3cc(C(F)(F)F)ccc3[nH]c2=O)cc1 [Example 14, N-[4-[[4-(5-chloro-2-hydroxyphenyl)-1,2-dihydro-2-oxo-6-(trifluoromethyl)-3-quinolinyl]thio]phenyl]-4-(2-pyridinyl)-1-piperazinepropanamide] | 37 | – | 24 | 169^⋄ % | –
7 | O=C(CCN1CCOCC1)Nc1ccc(Sc2c(-c3cc(Cl)ccc3O)c3cc(C(F)(F)F)ccc3[nH]c2=O)cc1 [Example 3, N-{4-[4-(5-Chloro-2-hydroxy-phenyl)-2-oxo-6-trifluoromethyl-1,2-dihydro-quinolin-3-ylsulfanyl]-phenyl}-3-morpholin-4-yl-propionamide] | 22 | 453 | 50 | – | –
8 | CN1CCN(CCC(=O)Nc2ccc(Sc3c(-c4cc(Cl)ccc4O)c4cc(C(F)(F)F)ccc4[nH]c3=O)cc2)CC1 [Example 11, N-[4-[[4-(5-chloro-2-hydroxyphenyl)-1,2-dihydro-2-oxo-6-(trifluoromethyl)-3-quinolinyl]thio]phenyl]-4-methyl-1-piperazinepropanamide] | 30 | 474 | 70 | – | –
9 | O=C(CN1CCC(N2CCCCC2)CC1)Nc1ccc(Sc2c(-c3cc(Cl)ccc3O)c3cc(C(F)(F)F)ccc3[nH]c2=O)cc1 [Example 8, N-[4-[[4-(5-chloro-2-hydroxyphenyl)-1,2-dihydro-2-oxo-6-(trifluoromethyl)-3-quinolinyl]thio]phenyl]-[1,4′-bipiperidine]-1′-acetamide] | 45 | 283 | – | – | –
10 | CN(C)C1CCN(CC(=O)Nc2ccc(Sc3c(-c4cc(Cl)ccc4O)c4cc(C(F)(F)F)ccc4[nH]c3=O)cc2)CC1 [Example 10, N-[4-[[4-(5-chloro-2-hydroxyphenyl)-1,2-dihydro-2-oxo-6-(trifluoromethyl)-3-quinolinyl]thio]phenyl]-4-(dimethylamino)-1-piperidineacetamide] | 19 | 292 | 54 | – | –
11 | O=C(CCCN1CCN(c2ccccn2)CC1)Nc1ccc(Sc2c(-c3cc(Cl)ccc3O)c3cc(C(F)(F)F)ccc3[nH]c2=O)cc1 [Example 16, N-[4-[[4-(5-chloro-2-hydroxyphenyl)-1,2-dihydro-2-oxo-6-(trifluoromethyl)-3-quinolinyl]thio]phenyl]-4-(2-pyridinyl)-1-piperazinebutanamide] | 37 | – | – | 197^⋄ % | –
12 | O=C(CN1CCN(c2ccccn2)CC1)Nc1ccc(Sc2c(-c3cc(Cl)ccc3O)c3cc(C(F)(F)F)ccc3[nH]c2=O)cc1 [Example 9, N-[4-[[4-(5-chloro-2-hydroxyphenyl)-1,2-dihydro-2-oxo-6-(trifluoromethyl)-3-quinolinyl]thio]phenyl]-4-(2-pyridinyl)-1-piperazineacetamide] | 17 | – | – | – | 116^⋄⋄ %
13 | O=C(CN1CCCC1)Nc1ccc(Sc2c(-c3cc(Cl)ccc3O)c3cc(C(F)(F)F)ccc3[nH]c2=O)cc1 [Example 6, N-[4-[[4-(5-chloro-2-hydroxyphenyl)-1,2-dihydro-2-oxo-6-(trifluoromethyl)-3-quinolinyl]thio]phenyl]-1-pyrrolidineacetamide] | 28 | 291 | – | – | –
14 | O=C(CCN1CCCC1)Nc1ccc(Sc2c(-c3cc(Cl)ccc3O)c3cc(C(F)(F)F)ccc3[nH]c2=O)cc1 [Example 4, N-{4-[4-(5-Chloro-2-hydroxy-phenyl)-2-oxo-6-trifluoromethyl-1,2-dihydro-quinolin-3-ylsulfanyl]-phenyl}-3-pyrrolidin-1-yl-propionamide] | 35 | 264 | – | – | –
15 | CN1CCN(CC(=O)Nc2ccc(Sc3c(-c4cc(Cl)ccc4O)c4cc(C(F)(F)F)ccc4[nH]c3=O)cc2)CC1 [Example 2, N-{4-[4-(5-Chloro-2-hydroxy-phenyl)-2-oxo-6-trifluoromethyl-1,2-dihydro-quinolin-3-ylsulfanyl]-phenyl}-2-(4-methyl-piperazin-1-yl)-acetamide] | 19 | 246 | 36 | – | –
